One data set concerns the target T1, MER (Homo sapiens, UniProt Q12866).
T1 construct: A purified kinase (MER or AXL) was incubated with a compound or DMSO
T1 sequence (Q12866 21-999): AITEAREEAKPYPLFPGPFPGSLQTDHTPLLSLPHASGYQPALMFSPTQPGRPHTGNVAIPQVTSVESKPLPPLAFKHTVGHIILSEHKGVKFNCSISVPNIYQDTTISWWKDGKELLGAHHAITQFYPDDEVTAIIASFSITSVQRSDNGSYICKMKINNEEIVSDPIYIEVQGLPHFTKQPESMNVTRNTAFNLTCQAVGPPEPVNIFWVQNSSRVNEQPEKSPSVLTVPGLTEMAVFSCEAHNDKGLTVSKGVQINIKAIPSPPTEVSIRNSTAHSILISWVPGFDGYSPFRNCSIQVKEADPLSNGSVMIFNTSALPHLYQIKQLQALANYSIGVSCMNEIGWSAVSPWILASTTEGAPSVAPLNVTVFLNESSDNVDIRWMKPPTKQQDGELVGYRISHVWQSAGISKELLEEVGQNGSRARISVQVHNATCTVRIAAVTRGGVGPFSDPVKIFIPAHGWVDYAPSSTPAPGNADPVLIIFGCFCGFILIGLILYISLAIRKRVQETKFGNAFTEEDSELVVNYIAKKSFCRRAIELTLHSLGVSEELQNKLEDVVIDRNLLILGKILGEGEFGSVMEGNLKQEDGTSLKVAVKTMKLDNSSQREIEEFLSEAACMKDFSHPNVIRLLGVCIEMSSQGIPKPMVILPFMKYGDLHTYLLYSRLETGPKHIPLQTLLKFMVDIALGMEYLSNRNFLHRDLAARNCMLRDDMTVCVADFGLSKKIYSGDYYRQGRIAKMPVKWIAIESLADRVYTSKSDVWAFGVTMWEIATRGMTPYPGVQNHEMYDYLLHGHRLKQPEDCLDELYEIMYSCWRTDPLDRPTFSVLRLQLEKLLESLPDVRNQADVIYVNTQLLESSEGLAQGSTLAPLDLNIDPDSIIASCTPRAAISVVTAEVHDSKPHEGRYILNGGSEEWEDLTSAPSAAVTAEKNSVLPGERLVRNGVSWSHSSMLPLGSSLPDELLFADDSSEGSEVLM
Description: MER enzyme inhibition assay (in-house Kinase-Glo). In kind it is biochemical. Background: In Kinase-Glo more light means more ATP remaining.

In data set [1] the test system is MDA-MB-231 human triple-negative breast xenograft tumors. Description: MDA-MB-231 xenograft tumor model. Conditions: 50 mg/kg QD, FOTO.
Description: (§1) All mice were used between 6 and 7 weeks of age. […] Tumor cells were detected as free of Mycoplasma spp prior to injection into animals. […] Tumor growth was measured with an electronic caliper, and volumes were calculated as L × W × W/2. Tumor size and animal body weight were measured once a week after tumor cell inoculation. Tumor growth inhibition (% TGI) = [1 – ΔT/ΔC] × 100, where ΔT is the difference of average tumor volume on the measured day and day 0 of treated groups and ΔC is the difference of average tumor volume on the measured day and day 0 of control groups.
Data set [2] deals with Hepa1–6 murine liver tumors. Description: Hepa1–6 tumor model. Conditions: 30 mg/kg orally QD, FOTO. The class given is in vivo, mice.
Description: as §1
Data set [3] relates to 4T1 murine triple-negative breast tumors. The data set is described as follows: 4T1 syngeneic tumor model. The class given is in vivo, mice. As to conditions: 50 mg/kg QD, FOTO.
Description: as §1
A further data set has as its system MC38 murine colon tumor. Description: MC38 syngeneic tumor model. In kind it is in vivo, mice.
The target in another data set is T2, AXL (Homo sapiens, UniProt P30530).
T2 construct: A purified kinase (MER or AXL) was incubated with a compound or DMSO
T2 sequence (P30530 26-894): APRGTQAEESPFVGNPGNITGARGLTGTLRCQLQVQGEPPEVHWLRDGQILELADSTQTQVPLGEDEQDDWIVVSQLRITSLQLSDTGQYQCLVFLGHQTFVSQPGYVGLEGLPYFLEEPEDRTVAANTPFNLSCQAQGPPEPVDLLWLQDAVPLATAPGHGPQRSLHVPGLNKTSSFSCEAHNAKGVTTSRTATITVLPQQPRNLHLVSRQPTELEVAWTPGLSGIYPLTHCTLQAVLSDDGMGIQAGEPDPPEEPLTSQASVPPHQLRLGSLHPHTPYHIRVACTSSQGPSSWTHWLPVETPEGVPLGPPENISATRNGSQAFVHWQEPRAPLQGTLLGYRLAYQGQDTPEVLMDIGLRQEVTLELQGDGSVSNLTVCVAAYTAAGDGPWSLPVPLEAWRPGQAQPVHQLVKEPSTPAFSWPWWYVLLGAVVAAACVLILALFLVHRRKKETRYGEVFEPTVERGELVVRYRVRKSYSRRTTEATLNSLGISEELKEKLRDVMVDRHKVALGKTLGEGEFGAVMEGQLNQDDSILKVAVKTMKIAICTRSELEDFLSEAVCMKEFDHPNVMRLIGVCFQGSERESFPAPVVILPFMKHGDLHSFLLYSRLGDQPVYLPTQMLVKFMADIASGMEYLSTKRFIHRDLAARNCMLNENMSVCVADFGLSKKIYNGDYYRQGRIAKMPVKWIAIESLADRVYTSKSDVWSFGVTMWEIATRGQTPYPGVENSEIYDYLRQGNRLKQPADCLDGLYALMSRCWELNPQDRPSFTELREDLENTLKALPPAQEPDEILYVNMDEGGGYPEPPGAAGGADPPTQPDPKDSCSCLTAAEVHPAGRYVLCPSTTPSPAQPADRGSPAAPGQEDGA
Description: AXL enzyme inhibition assay (ADP-Glo). The class given is biochemical. (In general: In ADP-Glo the light output rises with the ADP produced.)

A short description of data set [4]: In vitro microsomal stability assay. The class given is in vitro ADME. Conditions: 1 μM, mouse liver microsomes, percent remaining at 30 min. On the procedure:
All incubations were initiated with the addition of NADPH-generating system at 37 °C for 30 min. At 0 and the end of incubation, 100 μL of aliquots were taken from the incubation mixture and placed into centrifuge tubes containing 100 μL of ice-cold acetonitrile to terminate the metabolic reaction. The samples were vortexed and centrifuged, and then, the supernatant injected onto LC/MS. Percent of remaining of each compound was calculated by comparing peak areas at 30 min to that at the initiation of incubation.
Background: Liver microsomes are a subcellular fraction often used to study metabolism.

The nature of data set [5]: In vivo pharmacokinetics study. Conditions: mice; for clearance at 24 h: read-out: iv CL; for Vd at 24 h: read-out: iv Vss; for iv DNAUC(0–inf) / po DNAUC(0–inf) / po DNCmax: dose-normalized. On the procedure:
The animal studies were performed according to NHRI institutional animal care and committee-approved procedures. Male ICR mice (25–35 g) were obtained from BioLASCO (Taiwan Co., Ltd., Ilan, Taiwan). […] All samples were analyzed for the parent drug by LC-MS/MS. Plasma concentration data were analyzed with a noncompartmental method.

The subject of another data set is Ba/F3-MER cells. The data set is described as follows: Cell viability assay (MTS). As to conditions: 72 h. The class given is cell-based.
The mark [6] stands for this setting: male, ICR, mouse, plasma, iv 2 mg/kg, po 10 mg/kg.
The mark [7] stands for this setting: male, ICR, mouse, plasma, iv 2 mg/kg.
[8] abbreviates: male, ICR, mouse, plasma, iv 2 mg/kg, read-out: iv T1/2 (converted).
Where [9] appears, read: male, ICR, mouse, plasma, po 10 mg/kg.
Where [10] appears, read: male, ICR, mouse, plasma, po 10 mg/kg, read-out: po T1/2 (converted).
Setting [11] is: male, ICR, mouse, plasma, iv 3 mg/kg.

From PMC11247487, “Discovery of Dual MER/AXL Kinase Inhibitors as Bifunctional Small Molecules for Inhibiting Tumor Growth and Enhancing Tumor Immune Microenvironment” (Journal of Medicinal Chemistry, 2024) come the findings set out here.

Where “and” joins values, the source holds several entries; their conditions need not be identical. Equal entries are not always repeated. Entries after “also recorded” stand apart in the source; their conditions may differ. Where two headings read alike, the source gives them in different places.

Description for MC38 murine colon tumor: as §1

For orientation: IC50 means the concentration needed to halve the response being measured. A high value points to weaker potency in that assay. As to `COc1cc2nccc(Oc3ccc(NC(=O)c4cc5c(n(-c6ccccc6)c4=O)CCCC5=O)nc3)c2cc1OC` [Compound 8, tamnorzatinib], 9.8 nM corresponded to half-maximal inhibition on MER (IC50). Also, the “TGI, % of Vehicle Control” value in [1] was 9% and 8.7 ± 4.7%; in data set [2], 17% and 16.7 ± 12.0%; in [3], 12% and 12.2 ± 3.7%; in the data set on MC38 murine colon tumor (50 mg/kg orally QD, FOTO), 45% and 44.8 ± 4.6%.
By bioavailability is commonly meant the share of a dose that reaches the circulation, judged against a reference dose that is usually intravenous. High values mean good availability, low ones poor availability. As a reminder, the Tmax is the time from dosing to the highest level. On to `Cn1cc(-c2oc3ncnc(Oc4ccc(NC(=O)c5cccn(-c6ccc(F)cc6)c5=O)cc4)c3c2-c2cccc(N3CCNCC3)c2)cn1` [Compound 34, 1-(4-Fluorophenyl)-N-[4-({6-(1-methyl-1H-pyrazol-4-yl)-5-[3-(piperazin-1-yl)phenyl]furo[2,3-d]pyrimidin-4-yl}oxy)phenyl]-2-oxo-1,2-dihydropyridine-3-carboxamide], for which the IC50 against AXL was 12.1 nM; against MER it was 2.1 nM; in the data set on Ba/F3-MER cells, 8.4 nM. Further, the “Microsomal stability @ 30 min” value in data set [4] turned out to be 83%. In data set [5] (setting [6]), this molecule displayed a bioavailability at 24 h of 0.6%. The clearance at 24 h in [5] (setting [7]) amounted to 42.9 mL/min/kg. Moreover, the half-life at 24 h is 6.7 h in data set [5] (setting [8]) and 4.7 h in data set [5] (setting [10]). Also, the Vd at 24 h in [5] (setting [7]) is 14.2 L/kg. Moreover, the Tmax in [5] (setting [9]) is 2.2 h. In data set [5] (iv 2 mg/kg), the “iv DNAUC(0–inf)” value was found to be 454.5 ng·h/mL. Besides, in data set [5] (po 10 mg/kg), the “po DNAUC(0–inf)” value came out at 2.6 ng·h/mL. Also, the “po DNCmax” value in data set [5] (po 10 mg/kg) stood at 0.7 ng/mL.
Consider `Cn1cc(-c2oc3ncnc(Oc4ccc(NC(=O)c5cccn(-c6ccc(F)cc6)c5=O)cc4)c3c2-c2cccc(CN)c2)cn1` [Compound 31, N-[4-({5-[3-(Aminomethyl)phenyl]-6-(1-methyl-1H-pyrazol-4-yl)furo[2,3-d]pyrimidin-4-yl}oxy)phenyl]-1-(4-fluorophenyl)-2-oxo-1,2-dihydropyridine-3-carboxamide], for which the “Microsomal stability @ 30 min” value in data set [4] turned out to be 77%. In data set [5] (setting [7]), the clearance at 24 h was 35.1 mL/min/kg and the Vd at 24 h worked out at 9.9 L/kg. In data set [5] (setting [8]), the half-life at 24 h was 6.3 h. For the same molecule, the “iv DNAUC(0–inf)” value in data set [5] (iv 2 mg/kg) came to 483.0 ng·h/mL. The molecule further returned an IC50 in the data set with Ba/F3-MER cells of 7.6 nM.
For the molecule `CN1CCN(c2cccc(-c3c(-c4cnn(C)c4)oc4ncnc(Oc5ccc(NC(=O)c6cccn(-c7ccc(F)cc7)c6=O)cc5)c34)c2)CC1` [Compound 35, 1-(4-Fluorophenyl)-N-[4-({5-[3-(4-methylpiperazin-1-yl)phenyl]-6-(1-methyl-1H-pyrazol-4-yl)furo[2,3-d]pyrimidin-4-yl}oxy)phenyl]-2-oxo-1,2-dihydropyridine-3-carboxamide], the values for the IC50 on AXL, against MER and in the data set with Ba/F3-MER cells were 11.1 nM, 14.2 nM and 7.5 nM, respectively. Besides, the “Microsomal stability @ 30 min” value in data set [4] turned out to be 59%. For the same molecule, the bioavailability at 24 h in data set [5] (setting [6]) is 14.8%. Further, in [5] (setting [7]), the clearance at 24 h was 87.1 mL/min/kg. Moreover, the results for the half-life at 24 h in data set [5] (setting [8]) and in [5] (setting [10]) were 2.4 h and 4.3 h, respectively. In [5] (setting [7]), the Vd at 24 h is 7.4 L/kg. The Tmax at 24 h in data set [5] (setting [9]) stood at 2.7 h. Further, the “iv DNAUC(0–inf)” value in data set [5] (iv 2 mg/kg) stood at 221.0 ng·h/mL. Also, the “po DNAUC(0–inf)” value in [5] (po 10 mg/kg) is 32.8 ng·h/mL. Also, the “po DNCmax” value in [5] (po 10 mg/kg) is 4.5 ng/mL.
With `Cn1cc(-c2oc3ncnc(Oc4ccc(NC(=O)c5cccn(-c6ccc(F)cc6)c5=O)cc4)c3c2-c2cccc(N)c2)cn1` [Compound 22, N-(4-{[5-(3-Aminophenyl)-6-(1-methyl-1H-pyrazol-4-yl)furo[2,3-d]pyrimidin-4-yl]oxy}phenyl)-1-(4-fluorophenyl)-2-oxo-1,2-dihydropyridine-3-carboxamide], in data set [5] (setting [11]), the clearance at 24 h is 2.9 mL/min/kg and the Vd at 24 h is 1.2 L/kg. The half-life at 24 h in data set [5] (male, ICR, mouse, plasma, iv 3 mg/kg, read-out: iv T1/2 (converted)) is 6 h. In [5] (male, ICR, mouse, plasma, iv and po 3 mg/kg), this molecule registered a bioavailability at 24 h of 19.2%. Also, the Tmax at 24 h in data set [5] (male, ICR, mouse, plasma, po 3 mg/kg) amounted to 4 h. Further, in [5] (male, ICR, mouse, plasma, po 3 mg/kg, read-out: po T1/2 (converted)), the half-life at 24 h was 3.4 h. Besides, the “iv DNAUC(0–inf)” value in data set [5] (iv 3 mg/kg) was 3,985.3 ng × hr/mL. Also, in data set [5] (po 3 mg/kg), the “po DNAUC(0–inf)” value was 764.0 ng·h/mL and the “po DNCmax” value worked out at 38.7 ng/mL. For the same molecule, the “body weight during treatment” value in the data set with MC38 murine colon tumor (MC38 tumor-bearing mice, 25-50 mg/kg orally, 3 weeks) is on record as “No significant body weight loss; also recorded: well-tolerated without significant body weight loss”.
With `CC(=O)Nc1cccc(-c2c(-c3cnn(C)c3)oc3ncnc(Oc4ccc(NC(=O)c5cccn(-c6ccc(F)cc6)c5=O)cc4)c23)c1` [Compound 28, N-[4-({5-[3-(Acetylamino)phenyl]-6-(1-methyl-1H-pyrazol-4-yl)furo[2,3-d]pyrimidin-4-yl}oxy)phenyl]-1-(4-fluorophenyl)-2-oxo-1,2-dihydropyridine-3-carboxamide], in data set [4], the “Microsomal stability @ 30 min” value turned out to be 91%. For the same molecule, in data set [5] (setting [7]), the clearance at 24 h is 20.5 mL/min/kg and the Vd at 24 h amounted to 10.5 L/kg. In data set [5] (setting [8]), the half-life at 24 h is 12.7 h. Also, the “iv DNAUC(0–inf)” value in [5] (iv 2 mg/kg) is 766.5 ng·h/mL. The molecule further gave a half-maximal inhibitory concentration (IC50) in the data set with Ba/F3-MER cells of 1 nM.
